# Data taken from US4987132A, “Saturated heterocyclic carboxamide derivatives” (Yamanouchi Pharmaceutical Co., Ltd., priority 1987, dated 1991).
# Structures can show the parent of a compound that is named as a salt. Where two headings read alike, the source gives them in different places.
# What was measured:
# Assay type in all cases: cell-based, rabbit (Japan white, male)
# [1] = tested on: platelet activating factor (PAF)-induced rabbit platelet aggregation in plasma; assay: PAF-induced platelet aggregation in rabbit platelet rich plasma
# Description: (§1) Method: Nine volumes of blood were drawn from the central ear artery of male rabbit (Japan white, 3 kg) directly into plastic syringe containing 1 volume of 3.8% sodium citrate. The blood was centrifuged at 270×g for 10 minutes at room temperature and the platelet rich plasma (PRP) was removed. The pellet was further centrifuged at 1,100×g for 15 minutes. The supernatant was used as platelet poor plasma (PPP). The platelet concentration was adjusted to 5×10^5 cells/μl with PPP. Platelet aggregation was measured by the method of G. V. R. Born and M. J. Cross [Journal of Physiology, 168, 178-195 (1963)] using a HEMA TRACER (Nikou Bio Science, Japan). Varying concentration of compounds were added to the PRP 2 minutes prior to PAF (10^-8 M). The extent of platelet aggregation was determined by the maximum change of light transmission, assigning the transmission of unstimulated PRP to be 0% and that of PPP to be as 100%. Percent inhibition with compound was calculated by dividing the percent aggregation in the presence of compound by that in the control, and then the IC50 values were calculated.
# [2] = tested on: platelet aggregation induced by arachidonic acid; assay: platelet aggregation induced by arachidonic acid; conditions: arachidonic acid 1×10^-4 M; data not shown
# Description: as §1, with “Varying concentration of compounds were added to the PRP 2 minutes prior to PAF (10^-8 M).” left out
# [3] = tested on: platelet aggregation induced by collagen; assay: platelet aggregation induced by collagen; conditions: collagen 10 μg/ml; data not shown
# Description: as §1, with “Varying concentration of compounds were added to the PRP 2 minutes prior to PAF (10^-8 M).” left out
# [4] = tested on: platelet aggregation induced by ADP; assay: platelet aggregation induced by ADP; conditions: ADP 3×10^-6 M; data not shown
# Description: as §1, with “Varying concentration of compounds were added to the PRP 2 minutes prior to PAF (10^-8 M).” left out
# [5] = Oryctolagus cuniculus, Platelet, Table 1, PAF 10^-8 M, compound added 2 minutes prior to PAF, rabbit PRP, read-out: IC50
# [6] = Oryctolagus cuniculus, Platelet, PAF 10^-8 M, compound added 2 minutes prior to PAF, rabbit PRP, read-out: IC50 values
# [7] = Oryctolagus cuniculus, Platelet
"IC50 [1, 5]",SMILES,further results
120 nM,Cc1ncccc1C1NC(C(=O)N2CCN(CCCc3ccccc3)CC2)CS1 (stereo not drawn) [Example 97],
,CCCCCCN1CCN(C(=O)C2CSC(c3cccnc3)N2)CC1 (stereo not drawn) [Example 117],"IC50 ([1]; Table 1, PAF 10^-8 M, compound added 2 minutes prior to PAF, rabbit PRP, read-out: IC50): 260 nM"
770 nM,CCCCc1ccc(CNC(=O)C2CSC(c3cccnc3)N2)cc1 (stereo not drawn) [Example 61],
28 nM,"CCCCCCCCCCN1CCN(C(=O)C2CSC(c3cccnc3)N2)CC1 (stereo not drawn) [Example 81, 1-decyl-4-[2-(3-pyridyl)thiazolidin-4-ylcarbonyl]piperazine trihydrochloride]","inhibition of platelet aggregation induced by arachidonic acid [2]: did not inhibit; IC50 [1, 6]: 28 to 85 nM; inhibition of platelet aggregation induced by collagen [3]: did not inhibit; inhibition of platelet aggregation induced by ADP [4]: did not inhibit"
430 nM,"O=C(NCc1ccc(OCCCCc2ccccc2)cc1)C1CSC(c2cccnc2)N1 (stereo not drawn) [Example 23, N-2-(3-pyridyl)thiazolidine-4-carboxamide dihydrochloride]",
67 nM,"CCCCCCCCN1CCN(C(=O)C2CSC(c3cccnc3)N2)CC1 (stereo not drawn) [Example 90, 1-octyl-4-[2-(3-pyridyl)thiazolidin-4-ylcarbonyl]piperazine fumarate]","inhibition of platelet aggregation induced by arachidonic acid [2]: did not inhibit; IC50 [1, 6]: 28 to 85 nM; inhibition of platelet aggregation induced by collagen [3]: did not inhibit; inhibition of platelet aggregation induced by ADP [4]: did not inhibit"
72 nM,O=C(C1CSC(c2cccnc2)N1)N1CCN(CCCCCc2ccccc2)CC1 (stereo not drawn) [Example 85],"inhibition of platelet aggregation induced by arachidonic acid [2]: did not inhibit; IC50 [1, 6]: 28 to 85 nM; inhibition of platelet aggregation induced by collagen [3]: did not inhibit; inhibition of platelet aggregation induced by ADP [4]: did not inhibit"
160 nM,CC(C)COc1ccc(CNC(=O)C2CSC(c3cccnc3)N2)cc1 (stereo not drawn) [Example 55],
170 nM,COc1ccc(CCCN2CCN(C(=O)C3CSC(c4cccnc4)N3)CC2)cc1 (stereo not drawn) [Example 120],
180 nM,O=C(C1CSC(c2cccnc2)N1)N1CCN(CCCc2ccc(Cl)cc2)CC1 (stereo not drawn) [Example 123],
760 nM,O=C(NCc1ccc(OCCCOc2ccccc2)cc1)C1CSC(c2cccnc2)N1 (stereo not drawn) [Example 60],
180 nM,O=C(C1CSC(c2cccnc2)N1)N1CCN(CCCc2ccc(F)cc2)CC1 (stereo not drawn) [Example 124],
260 nM,CCCCCCN1CCN(C(=O)C2CSC(c3cccnc3)N2)CC1 (stereo not drawn) [Example 92],
71 nM,O=C(CCCN1CCN(C(=O)C2CSC(c3cccnc3)N2)CC1)c1ccc(Br)cc1 (stereo not drawn) [Example 67],"inhibition of platelet aggregation induced by arachidonic acid [2]: did not inhibit; IC50 [1, 6]: 28 to 85 nM; inhibition of platelet aggregation induced by collagen [3]: did not inhibit; inhibition of platelet aggregation induced by ADP [4]: did not inhibit"
900 nM,O=C(C1CSC(c2cccnc2)N1)N1CCCN(Cc2ccccc2)CC1 (stereo not drawn) [Example 76],
500 nM,Cc1ccc(CN2CCN(C(=O)C3CSC(c4cccnc4)N3)CC2)cc1 (stereo not drawn) [Example 63],
85 nM,"Cl.Cl.Cl.O=C(C1CSC(c2cccnc2)N1)N1CCN(CCCCc2ccccc2)CC1 (stereo not drawn) [Example 49, 1-(4-phenylbutyl)-4-[2-(3-pyridyl)thiazolidin-4-ylcarbonyl]piperazine trihydrochloride]","inhibition of platelet aggregation induced by arachidonic acid [2]: did not inhibit; IC50 [1, 6]: 28 to 85 nM; inhibition of platelet aggregation induced by collagen [3]: did not inhibit; inhibition of platelet aggregation induced by ADP [4]: did not inhibit"
64 nM,CCCCCCCN1CCN(C(=O)C2CSC(c3cccnc3)N2)CC1 (stereo not drawn) [Example 71],"inhibition of platelet aggregation induced by arachidonic acid [2]: did not inhibit; IC50 [1, 6]: 28 to 85 nM; inhibition of platelet aggregation induced by collagen [3]: did not inhibit; inhibition of platelet aggregation induced by ADP [4]: did not inhibit"
210 nM,COc1cc(CNC(=O)C2CSC(c3cccnc3)N2)ccc1OCCCCc1ccccc1 (stereo not drawn) [Example 59],
900 nM,O=C(C1CSC(c2cccnc2)N1)N1CCC(CCc2ccccc2)CC1 (stereo not drawn) [Example 72],
650 nM,"O=C(C1CSC(c2cccnc2)N1)N1CCC(c2ccccc2)CC1 (stereo not drawn) [Example 46, 4-phenyl-1-[2-(3-pyridyl)thiazolidin-4-ylcarbonyl]piperidine dihydrochloride]",
400 nM,CN(Cc1ccc(OCCCc2ccccc2)cc1)C(=O)C1CSC(c2cccnc2)N1 (stereo not drawn) [Example 89],

"IC50 [1, 5]",SMILES,further results
180 nM,Nc1ccc(CCCN2CCN(C(=O)C3CSC(c4cccnc4)N3)CC2)cc1 (stereo not drawn) [Example 126],
120 nM,CC(C)CCCOc1ccc(CNC(=O)C2CSC(c3cccnc3)N2)cc1 (stereo not drawn) [Example 56],
630 nM,CC(C)CCCN1CCN(C(=O)C2CSC(c3cccnc3)N2)CC1 (stereo not drawn) [Example 93],
340 nM,CCCCCCCN1CCCN(C(=O)C2CSC(c3cccnc3)N2)CC1 (stereo not drawn) [Example 80],
,O=C(C1CSC(c2cccnc2)N1)N1CCN(CCCc2ccc([N+](=O)[O-])cc2[N+](=O)[O-])CC1 (stereo not drawn) [Example 125],"IC50 [1, 7]: 450 nM"
220 nM,O=C(C1CSC(c2cccnc2)N1)N1CCN(CCc2ccccc2)CC1 (stereo not drawn) [Example 84],
490 nM,"O=C(C1CSC(c2cccnc2)N1)N1CCN(c2ccccc2)CC1 (stereo not drawn) [Example 32, trihydrochloride]",
430 nM,O=C(CN1CCN(C(=O)C2CSC(c3cccnc3)N2)CC1)c1ccccc1 (stereo not drawn) [Example 66],
460 nM,Cc1ccccc1CCCN1CCN(C(=O)C2CSC(c3cccnc3)N2)CC1 (stereo not drawn) [Example 127],
390 nM,O=C(C1CSC(c2cccnc2)N1)N1CCN(CC=Cc2ccccc2)CC1 (stereo not drawn) [Example 64],
190 nM,O=C(C1CSC(c2cccnc2)N1)N1CCN(CCCc2ccc(O)cc2)CC1 (stereo not drawn) [Example 121],
,"O=C(NC1CCCCC1)C1CSC(c2cccnc2)N1 (stereo not drawn) [Example 34, N-cyclohexyl-2-(3-pyridyl)thiazolidine-4-carboxamide dihydrochloride]","IC50 [1, 7]: 950 nM"
250 nM,"CCCCCCCOc1ccc(CNC(=O)C2CSC(c3cccnc3)N2)cc1 (stereo not drawn) [Example 24, N-(p-Heptyloxybenzyl)-2-(3-pyridyl)thiazolidine-4-carboxamide dihydrochloride]",
450 nM,"O=C(C1CSC(c2cccnc2)N1)N1CCN(Cc2ccccc2)CC1 (stereo not drawn) [Example 48, 1-benzyl-4-[2(3-pyridyl)thiazolidin-4-ylcarbonyl]piperazine trihydrochloride]",
390 nM,O=C(NCc1ccc(OCCCc2ccccc2)cc1)C1CSC(c2cccnc2)N1 (stereo not drawn) [Example 58],
79 nM,Cc1ccc(CCCN2CCN(C(=O)C3CSC(c4cccnc4)N3)CC2)cc1 (stereo not drawn) [Example 119],"inhibition of platelet aggregation induced by arachidonic acid [2]: did not inhibit; IC50 [1, 6]: 28 to 85 nM; inhibition of platelet aggregation induced by collagen [3]: did not inhibit; inhibition of platelet aggregation induced by ADP [4]: did not inhibit"
860 nM,"O=C(C1CSC(c2cccnc2)N1)N1CCC(Cc2ccccc2)CC1 (stereo not drawn) [Example 36, 4-benzyl-1-[2-(3-pyridyl)thiazolidin-4-ylcarbonyl]piperidine dihydrochloride]",
120 nM,O=C(C1CSC(c2cccnc2)N1)N1CCN(CCCOc2ccccc2)CC1 (stereo not drawn) [Example 65],
,CC(CCN1CCN(C(=O)C2CSC(c3cccnc3)N2)CC1)c1ccccc1 (stereo not drawn) [Example 142],"inhibition of platelet aggregation induced by arachidonic acid [2]: did not inhibit; IC50 [1, 6]: 28 to 85 nM; inhibition of platelet aggregation induced by collagen [3]: did not inhibit; inhibition of platelet aggregation induced by ADP [4]: did not inhibit"
200 nM,O=C(NCc1ccc(OCC2CCCC2)cc1)C1CSC(c2cccnc2)N1 (stereo not drawn) [Example 57],
970 nM,N#Cc1ccc(CCCN2CCN(C(=O)C3CSC(c4cccnc4)N3)CC2)cc1 (stereo not drawn) [Example 128],

SMILES,"IC50 [1, 5]",further results
"O=C(NNc1ccccc1)C1CSC(c2cccnc2)N1 (stereo not drawn) [Example 50, N'-phenyl-2-(3-pyridyl)thiazolidine-4-carbohydrazide]",800 nM,
"Cc1ccc(CNC(=O)C2CSC(c3cccnc3)N2)cc1 (stereo not drawn) [Example 20, N-(p-Methylbenzyl)-2-(3-pyridyl)thiazolidine-4-carboxamide dihydrochloride]",800 nM,
"CN(Cc1ccccc1)C(=O)C1CSC(c2cccnc2)N1 (stereo not drawn) [Example 22, N-benzyl-N-methyl-2-(3-pyridyl)thiazolidine-4-carboxamide dihydrochloride]",790 nM,
"CC(C)CCOc1ccc(CNC(=O)C2CSC(c3cccnc3)N2)cc1 (stereo not drawn) [Example 54, N-[p-(3-methylbutoxy)benzyl]-2-(3-pyridyl)thiazolidine-4-carboxamide dihydrochloride]",240 nM,
